Measured values published in article PMC10092844, “Inhibition profile of trifludimoxazin towards PPO2 target site mutations” (Pest Management Science, 2022).
Residue numbers refer to the chain shown, from its start. pIC50: −log10 of the molar value.

Assays:
PPO2 R128E ΔG210 = target: T1, PPO2 R128E ΔG210 (Amaranthus tuberculatus, UniProt Q0NZW9, DEL210/R128E); experiment: biochemical; format: biochemical
T1 sequence (Q0NZW9 with tags, fused parts or gaps R128E/DEL210): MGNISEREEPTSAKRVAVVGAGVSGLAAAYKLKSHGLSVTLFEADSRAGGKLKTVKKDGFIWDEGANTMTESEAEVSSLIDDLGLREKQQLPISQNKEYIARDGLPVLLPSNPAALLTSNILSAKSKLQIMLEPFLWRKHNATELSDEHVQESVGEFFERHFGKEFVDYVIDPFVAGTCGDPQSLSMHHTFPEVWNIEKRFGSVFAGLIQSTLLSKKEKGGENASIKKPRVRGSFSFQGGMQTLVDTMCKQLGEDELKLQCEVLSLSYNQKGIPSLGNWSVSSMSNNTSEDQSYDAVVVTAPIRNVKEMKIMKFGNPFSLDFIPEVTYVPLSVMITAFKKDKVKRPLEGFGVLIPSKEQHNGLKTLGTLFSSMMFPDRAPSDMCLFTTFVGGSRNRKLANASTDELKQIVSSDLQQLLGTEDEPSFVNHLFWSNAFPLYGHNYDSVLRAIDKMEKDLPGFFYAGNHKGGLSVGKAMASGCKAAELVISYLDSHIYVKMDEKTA

PPO2 R128L ΔG210 = target: T2, PPO2 R128L ΔG210 (Amaranthus tuberculatus, UniProt Q0NZW9, DEL210-210/R128L); experiment: biochemical; format: biochemical
T2 sequence (Q0NZW9 with tags, fused parts or gaps R128L/DEL210-210): T1 sequence (Q0NZW9 with tags, fused parts or gaps R128E/DEL210) with E98L

PPO2 R128H ΔG210 = target: T3, PPO2 R128H ΔG210 (Amaranthus tuberculatus, UniProt Q0NZW9, DEL210/R128H); experiment: biochemical; format: biochemical
T3 sequence (Q0NZW9 with tags, fused parts or gaps R128H/DEL210): T1 sequence (Q0NZW9 with tags, fused parts or gaps R128E/DEL210) with E98H

PPO2 R128I ΔG210 = target: T4, PPO2 R128I ΔG210 (Amaranthus tuberculatus, UniProt Q0NZW9, DEL210-210/R128I); experiment: biochemical; format: biochemical
T4 sequence (Q0NZW9 with tags, fused parts or gaps R128I/DEL210-210): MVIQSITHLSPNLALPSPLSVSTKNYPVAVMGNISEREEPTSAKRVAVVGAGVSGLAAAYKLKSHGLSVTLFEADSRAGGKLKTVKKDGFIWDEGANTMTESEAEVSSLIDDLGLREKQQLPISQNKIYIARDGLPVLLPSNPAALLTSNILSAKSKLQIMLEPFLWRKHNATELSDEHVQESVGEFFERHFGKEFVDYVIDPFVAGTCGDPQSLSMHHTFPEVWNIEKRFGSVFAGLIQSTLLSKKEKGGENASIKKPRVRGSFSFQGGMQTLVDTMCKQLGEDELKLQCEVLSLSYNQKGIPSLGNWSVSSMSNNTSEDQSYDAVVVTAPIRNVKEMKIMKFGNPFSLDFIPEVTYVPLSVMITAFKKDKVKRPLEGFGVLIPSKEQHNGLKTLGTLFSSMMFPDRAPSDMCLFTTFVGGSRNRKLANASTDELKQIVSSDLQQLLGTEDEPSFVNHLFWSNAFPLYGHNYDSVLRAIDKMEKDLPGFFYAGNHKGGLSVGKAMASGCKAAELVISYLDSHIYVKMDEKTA

PPO2 R128C ΔG210 = target: T5, PPO2 R128C ΔG210 (Amaranthus tuberculatus, UniProt Q0NZW9, DEL210/R128C); experiment: biochemical; format: biochemical
T5 sequence (Q0NZW9 with tags, fused parts or gaps R128C/DEL210): T1 sequence (Q0NZW9 with tags, fused parts or gaps R128E/DEL210) with E98C

[1] = target: T6, PPO2 R128L ΔG210 in Escherichia coli hemG (Amaranthus tuberculatus, UniProt Q0NZW9, DEL210-210/R128L, cells depend on it); format: cell-based; conditions: read-out: IC50 (E. coli hemG growth)
T6 sequence (Q0NZW9 with tags, fused parts or gaps R128L/DEL210-210): T1 sequence (Q0NZW9 with tags, fused parts or gaps R128E/DEL210) with E98L

| Compound | pIC50 (PPO2 R128E ΔG210) | pIC50 (PPO2 R128L ΔG210) | pIC50 (PPO2 R128H ΔG210) | pIC50 (PPO2 R128I ΔG210) | pIC50 (PPO2 R128C ΔG210) | pIC50 [1] | Resistance factor (PPO2 R128E ΔG210) | Resistance factor (PPO2 R128L ΔG210) | Resistance factor (PPO2 R128H ΔG210) | Resistance factor (PPO2 R128I ΔG210) | Resistance factor (PPO2 R128C ΔG210) |
| --- | --- | --- | --- | --- | --- | --- | --- | --- | --- | --- | --- |
| CS(=O)(=O)NC(=O)c1cc(Oc2ccc(C(F)(F)F)cc2Cl)ccc1[N+](=O)[O-] [Fomesafen, fomesafen] | < 5.00 | < 5.00 | < 5.00 | < 5.00 | < 5.00 |  |  |  |  |  |  |
| CCOC(=O)C(C)OC(=O)c1cc(Oc2ccc(C(F)(F)F)cc2Cl)ccc1[N+](=O)[O-] (stereo not shown) [Lactofen, lactofen] | 6.19 | 6.19 | 5.80 | 5.71 | 5.67 | < 5.00 |  |  |  |  |  |
| CC(C)N(C)S(=O)(=O)NC(=O)c1cc(-n2c(=O)cc(C(F)(F)F)n(C)c2=O)c(F)cc1Cl [Saflufenacil, saflufenacil] | < 5.00 | < 5.00 | < 5.00 | < 5.00 | < 5.00 | < 5.00 |  |  |  |  |  |
| C#CCN1C(=O)C(F)(F)Oc2cc(F)c(-n3c(=O)n(C)c(=S)n(C)c3=O)cc21 [Trifludimoxazin, trifludimoxazin] | 8.06 | 8.25 | 7.52 | 7.00 | 7.51 | 7.40 | 35 | 23 | 123 | 405 | 127 |
